{
  "source": "paper PMC7373994",
  "about": "(2020)",
  "assay_in_all_cases": "in-line probing",
  "key": {"[1]": {"tested_on": "53 tauA (RNA, riboswitch) GGAGAGUGAGUAGAAGCGGUCAGUGCAGGCAGCUGCGCGGGACAUUGCUCAGCAA", "conditions": "100 mM KCl, 20 mM MgCl2, 100 mM Tris-HCl pH 8.3, 19°C; for binding: tested up to 1 mM, 53 or 68 tauA construct not specified; for KD: apparent"}, "[2]": {"tested_on": "68 tauA M2 (G38C) (RNA, riboswitch) GGAGAGUGAGUAGAAGCGGUCAGUGCAGGCAGCUGCGCGCGACAUUGCUCAGCAACCAUUUCGCGGUUCA", "conditions": "100 mM KCl, 20 mM MgCl2, 100 mM Tris-HCl pH 8.3, 19°C"}, "[3]": {"tested_on": "68 tauA M1 (A12U) (RNA, riboswitch) GGAGAGUGAGUAGUAGCGGUCAGUGCAGGCAGCUGCGCGGGACAUUGCUCAGCAACCAUUUCGCGGUUCA", "conditions": "100 mM KCl, 20 mM MgCl2, 100 mM Tris-HCl pH 8.3, 19°C"}, "[4]": {"tested_on": "68 tauA (RNA, riboswitch) GGAGAGUGAGUAGAAGCGGUCAGUGCAGGCAGCUGCGCGGGACAUUGCUCAGCAACCAUUUCGCGGUUCA", "conditions": "100 mM KCl, 20 mM MgCl2; 100 mM Tris-HCl pH 8.3, 19°C; qualitative, wild type compared with mutants"}, "[5]": {"tested_on": "68 tauA M3 (G6C, A7U) (RNA, riboswitch) GGAGAGUCUGUAGAAGCGGUCAGUGCAGGCAGCUGCGCGGGACAUUGCUCAGCAA", "conditions": "100 mM KCl, 20 mM MgCl2; 100 mM Tris-HCl pH 8.3, 19°C"}},
  "data": [
    {"smiles": "Cn1c(=O)[nH]c(=O)c2[nH]c(=O)[nH]c21", "values": [
      {"measurement": "binding", "setting": "[1]", "result": "no"}
    ]},
    {"smiles": "O=c1[nH]c(=O)c2[nH]c(=O)[nH]c2[nH]1", "values": [
      {"measurement": "KD", "setting": "[1]; Figure S2C legend prints 4.3 µM instead", "result": "~ 25 µM"},
      {"measurement": "binding", "setting": "[2]; tested up to 1000 µM", "result": "no"},
      {"measurement": "binding", "setting": "[3]; tested up to 1000 µM", "result": "no"}
    ]},
    {"smiles": "Cn1c(=O)[nH]c2c(=O)[nH]c(=O)[nH]c21", "values": [
      {"measurement": "binding", "setting": "[1]", "result": "no"}
    ]},
    {"smiles": "Cn1c(=O)[nH]c2[nH]c(=O)[nH]c(=O)c21", "values": [
      {"measurement": "binding", "setting": "[1]", "result": "no"}
    ]},
    {"smiles": "O=c1[nH]cnc2c1ncn2[C@@H]1O[C@H](CO)[C@@H](O)[C@H]1O", "values": [
      {"measurement": "binding", "setting": "[1]", "result": "no"}
    ]},
    {"smiles": "O=c1[nH]c(=O)c2[nH]cnc2[nH]1", "values": [
      {"measurement": "binding", "setting": "[4]", "result": "yes"},
      {"measurement": "binding", "setting": "[5]", "result": "no"},
      {"measurement": "KD", "setting": "[1]; 36 h, two repeats", "result": "~ 3.7 µM"},
      {"measurement": "binding", "setting": "[2]; artifact modulation at highest concentration", "result": "no"},
      {"measurement": "binding", "setting": "[3]", "result": "no"}
    ]}
  ]
}
